Laboratory results as given in PubChem BioAssay (NCI).
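At the GI50, growth is halved. TGI denotes the concentration required for complete inhibition of growth.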

What was measured:
Assay in all cases: growth of human tumour cells (NCI), 384-well format; in the data active means GI50 below about 0.43 µM; inactive means the rest
[1] = tested on: TK-10 renal
[2] = tested on: UACC-62 melanoma
[3] = tested on: MDA-MB-468 breast
[4] = tested on: LOX IMVI melanoma
[5] = tested on: BT-549 breast
[6] = tested on: COLO 205 colon
[7] = tested on: EKVX NSCLC
[8] = tested on: PC-3 prostate
[9] = tested on: HS 578T breast
[10] = tested on: MDA-MB-231 breast
[11] = tested on: OVCAR-3 ovarian
[12] = tested on: MOLT-4 leukemia
[13] = tested on: NCI-H322M lung
[14] = tested on: HCT-15 colon
[15] = tested on: OVCAR-4 ovarian
[16] = tested on: IGROV1 ovarian
[17] = tested on: SK-MEL-28 melanoma
[18] = tested on: UACC-257 melanoma
[19] = tested on: MCF7 breast
[20] = tested on: NCI-H23 lung
[21] = tested on: MALME-3M melanoma
[22] = tested on: CCRF-CEM leukemia
[23] = tested on: OVCAR-8 ovarian
[24] = tested on: SW-620 colon
[25] = tested on: HOP-92 NSCLC
[26] = tested on: HT29 colon
[27] = tested on: NCI-H522 lung
[28] = tested on: RPMI-8226 leukemia
[29] = tested on: SF-539 CNS

CCNC(=O)c1noc(-c2cc(C(C)C)c(O)cc2O)c1-c1ccc(CN2CCOCC2)cc1
81 nM: TGI [1]
< 10 nM: TGI [2] | TGI [3] | TGI [4] | TGI [5] | TGI [9] | TGI [10] | TGI [11] | TGI [12] | TGI [15] | TGI [20] | TGI [21] | TGI [22] | TGI [23] | TGI [24] | TGI [25] | TGI [28] | TGI [29]
23.6 nM: TGI [27]
active: GI50 [2] < 10 nM | GI50 [3] < 10 nM | GI50 [4] < 10 nM | GI50 [5] < 10 nM | GI50 [6] 20.7 nM | GI50 [7] < 10 nM | GI50 [8] < 10 nM | GI50 [9] < 10 nM | GI50 [10] < 10 nM | GI50 [11] < 10 nM | GI50 [12] < 10 nM | GI50 [13] < 10 nM | GI50 [14] < 10 nM | GI50 [15] < 10 nM | GI50 [16] 12.1 nM | GI50 [17] < 10 nM | GI50 [18] < 10 nM | GI50 [19] < 10 nM | GI50 [20] < 10 nM | GI50 [21] < 10 nM | GI50 [22] < 10 nM | GI50 [23] < 10 nM | GI50 [24] < 10 nM | GI50 [25] < 10 nM | GI50 [26] 85.9 nM | GI50 [27] < 10 nM | GI50 [28] < 10 nM | GI50 [29] < 10 nM
10.4 µM: TGI [14] | TGI [26]
157 nM: TGI [6]
12.2 µM: TGI [13]
29.6 nM: TGI [8]
1030 nM: TGI [7]
420 nM: TGI [18]
42.8 nM: TGI [17]
11.2 nM: TGI [19]
37 nM: TGI [16]
